Test results reported in patent publication US12257235B2, “Methods and materials for using ruminococcus gnavus or clostridium sporogenes to treat gastrointestinal disorders” (Mayo Foundation for Medical Education and Research, priority 2015, dated 2025).
Entries after “also recorded” stand apart in the source; their conditions may differ. Read-outs that look alike come from different tables or passages of the source.

Key:
[1] = biological target: T1, CLOSPO_02083 (Clostridium sporogenes, UniProt J7SZ64); assay: Inhibition of CLOSPO_02083 tryptamine production by (S)-α-FMT, progress curves; type: biochemical; details: CLOSPO_02083, 10 mM Trp
T1 construct: His6 (N); made in house; host or cells: E. coli BL21 (DE3)
Source text: (§1) Progress curves were fitted to the equation [P]=(vi/kobs)(1−exp(−kObst)), where P is the product formed at time t, vi is the initial velocity, and kobs is the apparent first-order rate constant for enzyme inactivation. The kobs were plotted versus inhibitor concentration and fitted to the equation kobs=kinact[I]/(Kapp+[I]), where Kapp is the apparent dissociation constant of the reversible enzyme-inhibitor complex, and kinact is the first-order rate constant for apparent irreversible conversion of the enzyme-inhibitor complex to covalently bound complex. Ki values were calculated using the equation Ki=Kapp/(1+[tryptophan])/Km,Trp) using experimentally determined Km values for tryptophan (Schirmer et al., Proc. Natl. Acad. Sci. USA, 103(11):4234-4239 (2006)).
(§2) The production of tryptamine was measured by HPLC in the presence of various concentrations of inhibitor over 30 minutes and progress curves of the reaction were analyzed to assess the kinetics of inhibition.

[2] = biological target: T2, RUMGNA_01526 (Mediterraneibacter gnavus, UniProt A7B1V0); assay: Inhibition of RUMGNA_01526 tryptamine production by (S)-α-FMT, progress curves; type: biochemical, Ruminococcus gnavus; details: RUMGNA_01526, 2.5 mM Trp
T2 construct: His6 (N); made in house; host or cells: E. coli BL21 (DE3)
Source text: as §1, §2

[3] = system: proximal colon, stripped of external muscle layers; assay: Ussing chamber short circuit current of proximal colon from GF, HM and CR mice; details: for EC50: Mus musculus; for EC50 / Emax (Δ Isc): serosal; for cumulative concentration response curves (intestinal secretion): serosal application, GF vs HM and CR mice
Experimental: Colonic mucosal transepithelial resistance (TER) was measured at the beginning of each experiment and FITC Dextran (4 k Da) flux was determined from the linear fit of samples obtained from the serosal side every 5 minutes for 30 minutes after adding 1 mg/mL FITC-Dextran to the mucosal side. Change in short circuit current (Δ lsc) was determined in response to electrical field stimulation (EFS) using foil electrodes on the submucosal side (30-150V, 100 0.5 ms pulses at 1-2 Hz). There was no significant difference in Δ lsc between GF and HM in response to EFS at 1 Hz (138±42 vs 202±71 μA/cm^2; n=4; p>0.05) or 2 Hz (180±28 vs 252±70 μA/cm^2; n=4; p>0.05).
Acetylcholine (Ach) in increasing concentrations (0.01-300 μM) on the serosal side was used as a control for tissue reactivity. Cumulative concentration response curves induced by serosal ACh were not different between GF and HM as evident by similar Emax (261±38 vs 299±27 μA/cm^2; n=5; p>0.05) and EC50 (20.6±3 vs 22.7±9 μM) values.

[4] = system: tryptophan hydroxylase 1 (Tph1) mRNA expression in BON cells
Experimental: Cells were plated at 1×10^5 per ml and grown to 90% confluency in 12-well culture plates. Culture wells were then treated (in triplicate) with tryptamine in media for 6 hours, fixed in RNA Protect (Qiagen) and subjected to qRT-PCR.

[5] = biological target: T1, CLOSPO_02083; type: biochemical; details: for decarboxylation of Phe by CLOSPO_02083: up to 90 mM substrate, 60 minutes
Experimental: (§3) Reaction mixtures contained 50 mM sodium phosphate pH 6.5, 300 mM NaCl, and […] PLP. Reactions were initiated by the addition of enzyme and terminated by quenching aliquots with 1 volume of MeOH and performed at 37° C. All substrates purchased from Sigma-Aldrich.
(§4) Under the same buffer and reaction conditions, the kinetic parameters for the decarboxylation of phenylalanine by RUMGNA_01526 were determined by adding RUMGNA_01526 to a final concentration of 500 nM, and the concentration of phenylalanine varied from 5-80 mM. Reactions proceeded for 10 minutes. The kinetic parameters for the decarboxylation of tryptophan by CLOSPO_02083 were determined by adding CLOSPO_02083 to a final concentration of 100 nM, and the concentration of tryptophan varied from 0.15-24.5 mM. Reactions proceeded for 6 minutes.
To gain insight into the substrate selectivity of CLOSPO_02083, the basic kinetic parameters were measured for CLOSPO_02083-catalyzed decarboxylation of the aromatic amino acids Trp, Tyr, and phenylalanine (Phe). To determine kcat and Km for CLOSPO_02083, the concentration of the amino acid substrate was varied under initial velocity conditions (FIGS. 3C and 4A).

[6] = biological target: T2, RUMGNA_01526; type: biochemical, Ruminococcus gnavus
Experimental: as §3
To determine the kinetic parameters for the decarboxylation of tryptophan by RUMGNA 01526, RUMGNA_01526 was added to a final concentration of 10 nM, and kcat and Km were determined by varying the concentration of tryptophan from 0.15-10 mM. Reactions proceeded for 7 minutes and were quenched as described. 100 μL of the quenched reaction was analyzed by HPLC. Peak areas were integrated and compared with a standard curve to calculate product concentration. Triplicate measurements were made from a single batch of purified enzyme. Initial velocity data were fit to the Michaelis-Menten equation by using the program GraphPad. The allosteric sigmoidal model was used by fitting to the Hill equation: y=vmax*x^h/(K0.5^h+x^h), where h is the Hill coefficient and K0.5 is the apparent concentration at half maximal velocity.
as §4
Basic kinetic parameters were measured for the decarboxylation of Trp, Tyr, and Phe by RUMGNA_01526.

[7] = system: 5HTR4; details: for response (Δ Isc) to mucosal application / response (Δ Isc) to serosal application: 5HTR4 KO mice
Experimental: The response to […] (5HT; 0.003-300 μM) on the mucosal or serosal side and tryptamine (0.003-3000 μM) on the mucosal or serosal side was determined in segments of proximal colon, stripped of external muscle layers, from both 5HTR4 KO and WT mice.

[8] = system: proximal colon, stripped of external muscle layers; assay: Ussing chamber short circuit current of proximal colon from GF, HM and CR mice; details: HM or CR mice
[9] = system: proximal-mid colon, stripped of external muscle layers; assay: Ion secretion from the murine colon, Ussing chamber short circuit current; parameters: species or system SvEv129 mice; details: 3 mM tryptamine, mucosal side
Experimental: A segment of proximal-mid colon, stripped of external muscle layers from each of three SvEv129 mice was mounted in 0.3 cm^2 area, 4 mL Ussing chamber. […] (FIG. 6).
The function of tryptamine in the context of microbe-host signaling in the gut was examined. An experiment to test whether tryptamine is capable of inducing ion secretion by intestinal epithelial cells was performed. Using an Ussing chamber, a segment of proximal-mid murine colon mucosa was exposed to two concentrations of tryptamine and the change of short circuit current was measured.

[10] = system: full-thickness colonic segments; assay: Open organ bath intraluminal pressure of mouse colonic segments ex vivo
Experimental: Preparations of full-thickness colonic segments (˜1.5 cm) were allowed to equilibrate in 37° C. Kreb's-jacketed organ baths with their distal ends opening to a pressure transducer and maintained under basal pressure of 5-cm column of vehicle (RL). The proximal end was closed during pressure recordings but opened to allow luminal infusion of vehicle or tryptamine in solution (100 μM, 1 mM and 3 mM; 10 minutes per treatment; n=5-7 mice).

[11] = at the highest concentration of Tyr tested
[12] = any of the tryptamine concentrations
[13] = 1 μM enzyme, 2.28 mM tyrosine, 90 minutes

T1 sequence (J7SZ64 whole entry): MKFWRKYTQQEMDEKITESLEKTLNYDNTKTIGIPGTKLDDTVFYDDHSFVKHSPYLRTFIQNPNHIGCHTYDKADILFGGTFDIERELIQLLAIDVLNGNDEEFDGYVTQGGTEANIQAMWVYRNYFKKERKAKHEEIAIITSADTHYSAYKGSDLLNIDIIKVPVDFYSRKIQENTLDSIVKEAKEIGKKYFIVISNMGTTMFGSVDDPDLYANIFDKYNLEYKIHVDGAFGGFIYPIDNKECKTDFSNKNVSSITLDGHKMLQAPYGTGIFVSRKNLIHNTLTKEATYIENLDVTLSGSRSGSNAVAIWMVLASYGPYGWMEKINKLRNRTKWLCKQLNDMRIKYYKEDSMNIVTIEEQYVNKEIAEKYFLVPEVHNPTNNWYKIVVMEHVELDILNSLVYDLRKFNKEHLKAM

**Q.** How did the Ki [1] turn out when N[C@@](CF)(Cc1c[nH]c2ccccc12)C(=O)O [(S)-α-FMT, (S)-α-fluoromethyltryptophan] was run?
**A.** 0.2 µM

**Q.** And the kinact [1]?
**A.** 0.00167 s⁻¹

**Q.** What about the Ki [2] of the same molecule?
**A.** 178 µM

**Q.** And the kinact [2]?
**A.** 0.02 s⁻¹

**Q.** What does the source list for CC(=O)OCC[N+](C)(C)C [ACh, Acetylcholine]?
**A.** EC50 ([3]; GF mice): 20.6 ± 3 µM; EC50 ([3]; HM mice): 22.7 ± 9 µM; Emax (Δ Isc) ([3]; GF mice): 261±38 μA/cm^2; Emax (Δ Isc) ([3]; HM mice): 299±27 μA/cm^2

**Q.** For CCCC(=O)O [Butyrate, butyrate], which “Tph1 mRNA induction above controls” value ([4]; butyrate 500 μM) is on record?
**A.** 3.5 fold

**Q.** And the “Tph1 mRNA induction above controls” value ([4]; butyrate 1 mM)?
**A.** 2.5 fold

**Q.** How did the “decarboxylation of Phe by CLOSPO_02083” value ([5]; 1 μM enzyme) turn out when N[C@@H](Cc1ccccc1)C(=O)O [Phe, phenylalanine] was run?
**A.** undetectable

**Q.** What about the “decarboxylation of Phe by CLOSPO_02083” value ([5]; 1 μM enzyme, listed as phenylalanine) of the same molecule?
**A.** not observed

**Q.** N[C@@H](Cc1c[nH]c2ccccc12)C(=O)O [Trp, tryptophan] was tested. Which “efficiency of decarboxylating Trp relative to Tyr” value [5, 11] did it give?
**A.** 600 fold

**Q.** And the kcat ([5]; decarboxylation of Trp by CLOSPO_02083)?
**A.** 20 s⁻¹

**Q.** And the Km ([5]; decarboxylation of Trp by CLOSPO_02083, 100 nM enzyme, 37° C.)?
**A.** 2800 µM

**Q.** And the “Km for Trp relative to Phe (lower)” value ([6]; RUMGNA_01526)?
**A.** 70 fold

**Q.** What about the “catalytic efficiency for Trp relative to Phe” value ([6]; RUMGNA_01526) of the same molecule?
**A.** > 1000 fold

**Q.** And the “kcat for Trp relative to Phe (higher)” value ([6]; RUMGNA_01526)?
**A.** 19 fold

**Q.** And the “efficiency of decarboxylating Trp relative to Tyr” value [6, 11]?
**A.** 1000 fold

**Q.** What about the kcat ([6]; decarboxylation of Trp by RUMGNA_01526) of the same molecule?
**A.** 73.33 s⁻¹

**Q.** And the Km ([6]; decarboxylation of Trp by RUMGNA_01526, 10 nM enzyme, 37° C.)?
**A.** 1100 ± 100 µM

**Q.** With CC(=O)O [acetate] as the molecule, how does the Tph1 expression induction ([4]; acetate 10 mM) read?
**A.** 2.5 fold

**Q.** What about the Tph1 expression induction ([4]; acetate 30 mM) of the same molecule?
**A.** 3.2 fold

**Q.** And the Tph1 expression induction ([4]; acetate 50 mM)?
**A.** 2.2 fold

**Q.** NCCc1c[nH]c2ccc(O)cc12 [serotonin, 5-hydroxy tryptamine, reference compound] was tested. Which “cumulative concentration response curves (intestinal secretion)” value [3] did it give?
**A.** significantly higher in GF compared to HM and CR

**Q.** And the “response (Δ Isc) to mucosal application” value [7]?
**A.** no response

**Q.** What about the “response (Δ Isc) to serosal application” value [7] of the same molecule?
**A.** decreased responsiveness

**Q.** What about the “biological effect in the presence of 5HT3 receptor antagonist” value [8] of the same molecule?
**A.** blocked the biological effect

**Q.** What about the “biological effect in the presence of 5HT4 receptor antagonist” value [8] of the same molecule?
**A.** blocked the biological effect

**Q.** What about the “maximal response (Emax) in the presence of 5HT3 receptor antagonist” value [8] of the same molecule?
**A.** can be blocked

**Q.** What about the “maximal response (Emax) in the presence of 5HT4 receptor antagonist” value [8] of the same molecule?
**A.** can be blocked

**Q.** For NCCc1c[nH]c2ccccc12 [tryptamine], which “alteration of Tph1 mRNA levels” value ([4]; 1 μM, 5 μM, 10 μM and 20 μM, 6 hours) is on record?
**A.** None of the tested tryptamine concentrations (1 μM, 5 μM, 10 μM, and 20 μM) reproducibly showed a significant alteration

**Q.** What about the “cumulative concentration response curves (intestinal secretion)” value [3] of the same molecule?
**A.** significantly higher in GF compared to HM and CR

**Q.** And the “change in short circuit current (ion secretion)” value [9]?
**A.** significant change in short circuit current; also recorded: significant increase

**Q.** What about the “response (Δ Isc) to mucosal application” value [7] of the same molecule?
**A.** no response

**Q.** And the “response (Δ Isc) to serosal application” value [7]?
**A.** no response

**Q.** And the “Δ Isc response” value ([7]; mucosal application of 3000 μM, 5HTR4 WT mice, maximum response not reached)?
**A.** 99.5±30.7

**Q.** And the “Emax (Δ Isc)” value ([7]; serosal application, 5HTR4 WT mice)?
**A.** 110±17 μA/cm2

**Q.** And the “contractile duration, measured at half amplitude, vs vehicle” value ([10]; any of the luminal tryptamine treatments)?
**A.** not significantly different

**Q.** What about the “contractile magnitude, area under the curve, vs vehicle” value [10, 12] of the same molecule?
**A.** not significantly different

**Q.** What about the “mean contractile amplitude vs vehicle” value [10, 12] of the same molecule?
**A.** not significantly different

**Q.** And the “contractile frequency vs vehicle controls” value ([10]; luminal 100 μM, 1 mM and 3 mM)?
**A.** not significantly different

**Q.** What about the contractile frequency ([10]; luminal 1 mM tryptamine, vehicle control 4.1±0.6, P=0.15) of the same molecule?
**A.** 5.9±0.8

**Q.** What about the “biological effect in the presence of 5HT3 receptor antagonist” value [8] of the same molecule?
**A.** did not block

**Q.** What about the “biological effect in the presence of 5HT4 receptor antagonist” value [8] of the same molecule?
**A.** blocked the biological effect

**Q.** And the “maximal response (Emax) in the presence of 5HT3 receptor antagonist” value [8]?
**A.** is not blocked

**Q.** And the “maximal response (Emax) in the presence of 5HT4 receptor antagonist” value [8]?
**A.** can be blocked

**Q.** How did the “decarboxylation of tyrosine by CLOSPO_02083” value [5, 13] turn out when N[C@@H](Cc1ccc(O)cc1)C(=O)O [tyrosine] was run?
**A.** observed

**Q.** What about the “decarboxylation of tyrosine by RUMGNA_01526” value [6, 13] of the same molecule?
**A.** observed
